Assay type in all cases: functional
A short description of assay [1]: Effect on apoptosis in Sprague-Dawley rat Leydig cells assessed as cell viability at 35 uM after 24 hrs by DAPI test. The conditions noted are these: read-out: Activity.
Assay [2] in a line: Effect on apoptosis in BALB/c mouse sertoli TM4 cells assessed as cell viability at 35 uM after 24 hrs by DAPI test. As to conditions: TM4, 24 h, read-out: Activity.
The nature of assay [3]: Effect on cell necrosis in Sprague-Dawley rat Leydig cells assessed as cell viability at 35 uM after 24 hrs by trypan blue test. The conditions noted are these: read-out: Activity.
Assay [4] is described as follows: Effect on apoptosis in Sprague-Dawley rat Leydig cells assessed as cell viability at 70 uM after 24 hrs by DAPI test. As to conditions: read-out: Activity.
Assay [5] in a line: Effect on necrosis in BALB/c mouse sertoli TM4 cells assessed as cell viability at 70 uM after 24 hrs by Trypan blue test. As to conditions: TM4, 24 h, read-out: Activity.
Assay [6] in a line: Effect on necrosis in BALB/c mouse sertoli TM4 cells assessed as cell viability at 35 uM after 24 hrs by Trypan blue test. The conditions noted are these: TM4, 24 h, read-out: Activity.
The nature of assay [7]: Effect on apoptosis in BALB/c mouse sertoli TM4 cells assessed as cell viability at 70 uM after 24 hrs by DAPI test. The conditions noted are these: TM4, 24 h, read-out: Activity.
Assay [8] is described as follows: Effect on cell necrosis in Sprague-Dawley rat Leydig cells assessed as cell viability at 70 uM after 24 hrs by trypan blue test. As to conditions: read-out: Activity.

Molecules are shown by their SMILES.

Regarding `C[C@]12CC[C@H](O)CC1=C[C@H](N)[C@@H]1[C@@H]2CC[C@]2(C)C(=O)CC[C@@H]12`, the viability at 35 µM in assay [1] came out at 92%; in assay [2], 82%; in assay [3], 93%; in assay [6] it was 64%. The viability at 70 µM in assay [4] worked out at 89%; in assay [5] it was 0%; in assay [7] it was 79%; in assay [8] it was 85%.
As for `C[C@]12CC[C@H](O)CC1=CC[C@@H]1[C@@H]2CC[C@]2(C)C(=O)CC[C@@H]12` [PRASTERONE], the viability at 35 µM amounted to 95% in assay [1], 90% in assay [2], 86% in assay [3] and 92% in assay [6]. The viability at 70 µM amounted to 95% in assay [4], 92% in assay [5], 90% in assay [7] and 76% in assay [8].

The values above are taken from ChEMBL document CHEMBL1143031, “First synthesis of 7alpha- and 7beta-amino-DHEA, dehydroepiandrosterone (DHEA) analogues and preliminary evaluation of their cytotoxicity on Leydig cells and TM4 Sertoli cells” (2007).
